Results as given in patent publication EP0259014A2, “5-Deoxy-5-fluorokanamycin B derivatives and processes for the production thereof” (ZAIDAN HOJIN BISEIBUTSU KAGAKU KENKYU KAI, priority 1986, dated 1988).
≈ marks a conversion by molar mass, not a printed value. Like-named read-outs stand apart in the source and are kept apart here.

Tests used:
in vivo = conditions: mouse, iv
[1] = system: Klebsiella pneumoniae 22#3038; assay: MIC, serial dilution on Mueller Hinton agar; assay type: cell-based; conditions: Klebsiella pneumoniae 22#3038, resistance mechanism APH(3')-II, ANT(2"), 37°C, 18 hours
Excerpt: The antibacterial spectra so determined of the new compounds No. 1 to No. 13 (each in the form of the free base) of this invention are as shown in Table 1 below.

[2] = system: Escherichia coli K-12 LA 290 R55; assay: MIC, serial dilution on Mueller Hinton agar; assay type: cell-based; conditions: Escherichia coli, K12LA290R55, 18 h
Mycobacterium 607 = assay: MIC, serial dilution on Mueller Hinton agar; assay type: cell-based
Escherichia coli K-12 = assay: MIC, serial dilution on Mueller Hinton agar; assay type: cell-based; conditions: K12; Escherichia coli K-12; Mueller Hinton agar, 37°C, 18 hours; read-out: MIC.
[3] = system: Escherichia coli K-12 ML 1629; assay: MIC, serial dilution on Mueller Hinton agar; assay type: cell-based; conditions: K12ML1629, Escherichia coli K-12 ML 1629, resistance mechanism APH(3')-I, 37°C, 18 hours
Escherichia coli K-12 R5 = assay: MIC, serial dilution on Mueller Hinton agar; assay type: cell-based; conditions: K12R5, 18 h
[4] = system: Staphylococcus aureus Ap01; assay: MIC, serial dilution on Mueller Hinton agar; assay type: cell-based
[5] = system: Pseudomonas aeruginosa A3; assay: MIC, serial dilution on Mueller Hinton agar; assay type: cell-based
Bacillus subtilis PCI219 = assay: MIC, serial dilution on Mueller Hinton agar; assay type: cell-based
Serratia marcescens = assay: MIC, serial dilution on Mueller Hinton agar; assay type: cell-based
[6] = system: Pseudomonas aeruginosa GN 315; assay: MIC, serial dilution on Mueller Hinton agar; assay type: cell-based
[7] = system: Corynebacterium bovis 1810; assay: MIC, serial dilution on Mueller Hinton agar; assay type: cell-based
Proteus rettgeri GN 311 = assay: MIC, serial dilution on Mueller Hinton agar; assay type: cell-based; conditions: Providencia rettgeri, GN311; Proteus rettgeri GN 311; Mueller Hinton agar, 37°C, 18 hours; read-out: MIC.
Providencia sp. Pv 16 = assay: MIC, serial dilution on Mueller Hinton agar; assay type: cell-based
Escherichia coli JR225 = assay: microbe, parasite or virus in culture; assay type: cell-based; conditions: Escherichia coli, JR225, 18 h
[8] = system: Staphylococcus aureus 209P; assay: MIC, serial dilution on Mueller Hinton agar; assay type: cell-based
[9] = system: Escherichia coli JR66/W677; assay: microbe, parasite or virus in culture; assay type: cell-based; conditions: JR66/W677, 18 h
[10] = Mycobacterium 607, Mueller Hinton agar, 37°C, incubated for 40 hours, read-out: MIC.
[11] = Staphylococcus aureus, AP01, 18 h
[12] = Pseudomonas aeruginosa A3, Mueller Hinton agar, 37°C, 18 hours, read-out: MIC.
[13] = Bacillus subtilis PCI219, Mueller Hinton agar, 37°C, 18 hours, read-out: MIC.
[14] = Corynebacterium bovis 1810, Mueller Hinton agar, 37°C, 18 hours, read-out: MIC.
[15] = SP.PV16, Providencia sp. Pv 16, resistance mechanism AAC(2'), Mueller Hinton agar, 37°C, 18 hours, read-out: MIC.
[16] = Staphylococcus aureus 209P, Mueller Hinton agar, 37°C, 18 hours, read-out: MIC.
[17] = Staphylococcus aureus Ap01, resistance mechanism ANT(4'), Mueller Hinton agar, 37°C, 18 hours, read-out: MIC.
[18] = Mueller Hinton agar, 37°C, 18 hours, read-out: MIC.
[19] = GN315, Pseudomonas aeruginosa GN 315, resistance mechanism AAC(6'), Mueller Hinton agar, 37°C, 18 hours, read-out: MIC.

SMILES | MIC [1] [µg/mL] | MIC [2] [µg/mL] | MIC (Mycobacterium 607; [10]) [µg/mL] | MIC (Escherichia coli K-12) [µg/mL] | MIC [3] [µg/mL] | MIC (Escherichia coli K-12 R5) [µg/mL] | MIC [4, 11] [µg/mL] | MIC [5, 12] [µg/mL] | MIC (Bacillus subtilis PCI219; [13]) [µg/mL] | MIC (Serratia marcescens; 18 h) [µg/mL] | MIC [7, 14] [µg/mL] | MIC (Proteus rettgeri GN 311) [µg/mL] | MIC (Providencia sp. Pv 16; [15]) [µg/mL] | MIC (Escherichia coli JR225) [µg/mL] | MIC [8, 16] [µg/mL] | MIC [9] [µg/mL] | MIC [4, 17] [µg/mL] | MIC (Serratia marcescens; [18]) [µg/mL] | MIC [6, 19] [µg/mL] | also measured
NCC[C@H](O)C(=O)N[C@@H]1C[C@H](N)[C@@H](O[C@H]2O[C@H](CN)CC[C@H]2N)[C@H](O)[C@H]1O[C@H]1O[C@H](CO)[C@@H](O)[C@H](N)[C@H]1O [habekacin, 1-N-(4-amino-2-(S)-hydroxybutyryl)-3',4'-dideoxykanamycin B, reference compound] |  |  |  |  |  |  |  |  |  |  |  |  |  |  |  |  |  |  |  | LD50 (in vivo): 90 mg/kg
NCC(O)C(=O)N[C@@H]1C[C@H](N)[C@@H](O[C@H]2O[C@H](CN)[C@@H](O)C[C@H]2N)[C@H](F)[C@H]1O[C@H]1O[C@H](CO)[C@@H](O)[C@H](N)[C@H]1O (stereo partly drawn) [Compound No. 7, 1-N-(3-Amino-2-(RS)-hydroxypropionyl)-5,3'-dideoxy-5-fluorokanamycin B] | 3.12 (≈ 5.61 µM) | 0.78 (≈ 1.4 µM) | 0.78 (≈ 1.4 µM) | 0.2 (≈ 0.359 µM) | 0.78 (≈ 1.4 µM) | 6.25 (≈ 11.2 µM) | 1.56 (≈ 2.8 µM) | 0.39 (≈ 0.701 µM) | 0.2 (≈ 0.359 µM) | 3.12 (≈ 5.61 µM) | < 0.2 | 0.78 (≈ 1.4 µM) | 0.78 (≈ 1.4 µM) | 0.78 (≈ 1.4 µM) | 0.39 (≈ 0.701 µM) | 1.56 (≈ 2.8 µM) |  |  |  | MIC ([6]; Pseudomonas aeruginosa, GN315, 18 h): 6.25 µg/mL (≈ 11.2 µM)
NCC[C@H](O)C(=O)N[C@@H]1C[C@H](N)[C@@H](O[C@H]2O[C@H](CN)[C@@H](O)[C@H](O)[C@H]2N)[C@H](F)[C@H]1O[C@H]1O[C@H](CO)[C@@H](O)[C@H](N)[C@H]1O [Compound No. 6, 1-N-(4-Amino-2-(S)-hydroxybutyryl)-5-deoxy-5-fluorokanamycin B] | 3.12 (≈ 5.32 µM) | 0.78 (≈ 1.33 µM) |  | < 0.2 | 0.78 (≈ 1.33 µM) | 12.5 (≈ 21.3 µM) |  | < 0.2 | 0.39 (≈ 0.665 µM) |  | < 0.2 | < 0.2 | 0.78 (≈ 1.33 µM) | < 0.2 | 0.39 (≈ 0.665 µM) | 0.78 (≈ 1.33 µM) | 6.25 (≈ 10.7 µM) | 1.56 (≈ 2.66 µM) | 6.25 (≈ 10.7 µM) | MIC (Mycobacterium 607; Mycobacterium, 607, 40 h): 12.5 µg/mL (≈ 21.3 µM)
NCC[C@H](O)C(=O)N[C@@H]1C[C@H](N)[C@@H](O[C@H]2O[C@H](CN)C[C@H](O)[C@H]2N)[C@H](F)[C@H]1O[C@H]1O[C@H](CO)[C@@H](O)[C@H](N)[C@H]1O [Compound No. 10, 1-N-(4-Amino-2-(S)-hydroxybutyryl)-5,4'-dideoxy-5-fluorokanamycin B] | 3.12 (≈ 5.47 µM) | 1.56 (≈ 2.73 µM) | 6.25 (≈ 11 µM) | 0.2 (≈ 0.35 µM) | 0.78 (≈ 1.37 µM) | 12.5 (≈ 21.9 µM) |  | 0.39 (≈ 0.683 µM) | 0.39 (≈ 0.683 µM) | 3.12 (≈ 5.47 µM) | < 0.2 | 0.2 (≈ 0.35 µM) | 0.78 (≈ 1.37 µM) | 0.78 (≈ 1.37 µM) | 0.39 (≈ 0.683 µM) | 1.56 (≈ 2.73 µM) | 0.39 (≈ 0.683 µM) |  | 6.25 (≈ 11 µM) | 
NC[C@@H]1C[C@H](O)[C@@H](N)[C@@H](O[C@H]2[C@H](F)[C@@H](O[C@H]3O[C@H](CO)[C@@H](O)[C@H](N)[C@H]3O)[C@H](N)C[C@@H]2N)O1 [Compound No. 3, 5,4'-Dideoxy-5-fluorokanamycin B] | > 100 | 6.25 (≈ 13.3 µM) | 3.12 (≈ 6.65 µM) | 1.56 (≈ 3.32 µM) | > 100 | 100 (≈ 213 µM) |  | 3.12 (≈ 6.65 µM) | 0.39 (≈ 0.831 µM) |  | 0.78 (≈ 1.66 µM) | 0.2 (≈ 0.426 µM) |  | 6.25 (≈ 13.3 µM) | 0.39 (≈ 0.831 µM) | > 100 | 0.78 (≈ 1.66 µM) | 12.5 (≈ 26.6 µM) | 100 (≈ 213 µM) | MIC (Providencia sp. Pv 16; Providencia, SP.PV16, 18 h): 6.25 µg/mL (≈ 13.3 µM)
NCC[C@H](O)C(=O)N[C@@H]1C[C@H](N)[C@@H](O[C@H]2O[C@H](CN)[C@@H](O)[C@H](O)[C@H]2O)[C@H](O)[C@H]1O[C@H]1O[C@H](CO)[C@@H](O)[C@H](N)[C@H]1O [AMK, 1-N-(4-amino-2-(S)-hydroxybutyryl)-kanamycin A, reference compound] | 3.12 (≈ 5.33 µM) | 1.56 (≈ 2.66 µM) |  |  | 1.56 (≈ 2.66 µM) | 25 (≈ 42.7 µM) | 3.12 (≈ 5.33 µM) |  |  |  |  |  |  |  |  | 3.12 (≈ 5.33 µM) |  | 6.25 (≈ 10.7 µM) | 25 (≈ 42.7 µM) | MIC ([5]; Pseudomonas aeruginosa, A3, 18 h): 1.56 µg/mL (≈ 2.66 µM); MIC (Bacillus subtilis PCI219; Bacillus subtilis, PCI219, 18 h): 1.56 µg/mL (≈ 2.66 µM); MIC ([7]; Corynebacterium bovis, 1810, 18 h): 1.56 µg/mL (≈ 2.66 µM); MIC ([8]; Staphylococcus aureus, 209P, 18 h): 1.56 µg/mL (≈ 2.66 µM)
